Assay results as given in PubChem BioAssay AID1963428 (Molecular Pharmacology Branch, DTP, NCI, 2024).

Tested on: 171881-019-R-J1-PDC complex spheroid growth, % test/control
Experiment: Anticancer human tumor 171881-019-R-J1-PDC patient-derived invasive breast carcinoma cell line growth inhibition [Asc]
Settings: for IC50: curve of first compound; for viability, T/C: stronger effect = lower value
Summary of the method: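 Tumor cells were grown as complex spheroids with human endothelial cells (HUVEC) and human mesenchymal stem cells as stroma. Agents were tested alone and in combination, in half-log steps down from the clinical Cmax, or from 10 microM where Cmax was unknown.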

[1] = second compound 0.1 µM, first compound 0.0316 µM
[2] = second compound 0.1 µM, first compound 0.1 µM
[3] = second compound 0.1 µM, first compound 0.316 µM
[4] = second compound 0.1 µM, first compound 1 µM
[5] = second compound 0.316 µM, first compound 0.0316 µM
[6] = second compound 0.316 µM, first compound 0.1 µM
[7] = second compound 0.316 µM, first compound 0.316 µM
[8] = second compound 0.316 µM, first compound 1 µM
[9] = second compound 1 µM, first compound 0.0316 µM
[10] = second compound 1 µM, first compound 0.1 µM
[11] = second compound 1 µM, first compound 0.316 µM
[12] = second compound 1 µM, first compound 1 µM
[13] = second compound 3.16 µM, first compound 0.0316 µM
[14] = second compound 3.16 µM, first compound 0.1 µM
[15] = second compound 3.16 µM, first compound 0.316 µM
[16] = second compound 3.16 µM, first compound 1 µM
[17] = second compound 10 µM, first compound 0.0316 µM
[18] = second compound 10 µM, first compound 0.1 µM
[19] = second compound 10 µM, first compound 0.316 µM
[20] = second compound 10 µM, first compound 1 µM
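For viability, T/C in this document: spheroids exposed to compounds for 7 days.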

Question: How did the IC50 (second compound 0.1 µM) turn out when `C#Cc1c(F)ccc2cc(O)cc(-c3ncc4c(N5CC6CCC(C5)N6)nc(OCC56CCCN5CC(F)C6)nc4c3F)c12` (stereo not given) + Cc1c(S(C)(=O)=O)c(-c2cc(F)cc(N3CCN(c4ccc(NS(=O)(=O)c5ccc(NC(CCN6CCC(C(=O)OCCCP(=O)(O)O)CC6)CSc6ccccc6)c(S(=O)(=O)C(F)(F)F)c5)cc4)CC3)c2)c(-c2ccc(Cl)cc2)n1C(C)C was run?
Answer: Its IC50 is greater than 10 µM.

Question: And the IC50 (second compound 0.316 µM)?
Answer: The IC50 was greater than 10 µM.

Question: What about the IC50 (second compound 1 µM) of the same compound?
Answer: Its IC50 is greater than 10 µM.

Question: And the IC50 (second compound 3.16 µM)?
Answer: The IC50 was 6.86 µM.

Question: What about the IC50 (second compound 10 µM) of the same compound?
Answer: The IC50 was 4 µM.

Question: What about the viability, T/C [1] of the same compound?
Answer: Its viability, T/C is 103%.

Question: And the viability, T/C [2]?
Answer: The viability, T/C was 116%.

Question: What about the viability, T/C [3] of the same compound?
Answer: Its viability, T/C is 152%.

Question: What about the viability, T/C [4] of the same compound?
Answer: Its viability, T/C is 167%.

Question: What about the viability, T/C (second compound 0.1 µM, first compound 3.16 µM) of the same compound?
Answer: Its viability, T/C is 154%.

Question: And the viability, T/C (second compound 0.1 µM, first compound 10 µM)?
Answer: Its viability, T/C is 111%.

Question: What about the viability, T/C [5] of the same compound?
Answer: The viability, T/C was 138%.

Question: And the viability, T/C [6]?
Answer: Its viability, T/C is 169%.

Question: And the viability, T/C [7]?
Answer: The viability, T/C was 219%.

Question: What about the viability, T/C [8] of the same compound?
Answer: Its viability, T/C is 165%.

Question: What about the viability, T/C (second compound 0.316 µM, first compound 3.16 µM) of the same compound?
Answer: Its viability, T/C is 112%.

Question: What about the viability, T/C (second compound 0.316 µM, first compound 10 µM) of the same compound?
Answer: The viability, T/C was 86%.

Question: What about the viability, T/C [9] of the same compound?
Answer: Its viability, T/C is 162%.

Question: What about the viability, T/C [10] of the same compound?
Answer: Its viability, T/C is 177%.

Question: And the viability, T/C [11]?
Answer: Its viability, T/C is 165%.

Question: And the viability, T/C [12]?
Answer: Its viability, T/C is 131%.

Question: What about the viability, T/C (second compound 1 µM, first compound 3.16 µM) of the same compound?
Answer: Its viability, T/C is 84.3%.

Question: And the viability, T/C (second compound 1 µM, first compound 10 µM)?
Answer: The viability, T/C was 61.1%.

Question: And the viability, T/C [13]?
Answer: The viability, T/C was 179%.

Question: And the viability, T/C [14]?
Answer: Its viability, T/C is 179%.

Question: And the viability, T/C [15]?
Answer: Its viability, T/C is 155%.

Question: What about the viability, T/C [16] of the same compound?
Answer: The viability, T/C was 97.6%.

Question: What about the viability, T/C (second compound 3.16 µM, first compound 3.16 µM) of the same compound?
Answer: The viability, T/C was 63.2%.

Question: And the viability, T/C (second compound 3.16 µM, first compound 10 µM)?
Answer: Its viability, T/C is 43%.

Question: And the viability, T/C [17]?
Answer: Its viability, T/C is 179%.

Question: And the viability, T/C [18]?
Answer: The viability, T/C was 186%.

Question: And the viability, T/C [19]?
Answer: Its viability, T/C is 135%.

Question: What about the viability, T/C [20] of the same compound?
Answer: Its viability, T/C is 91.5%.

Question: What about the viability, T/C (second compound 10 µM, first compound 3.16 µM) of the same compound?
Answer: Its viability, T/C is 58%.

Question: And the viability, T/C (second compound 10 µM, first compound 10 µM)?
Answer: Its viability, T/C is 33.9%.

Question: `CNC(C)C(=O)NC1CN(S(=O)(=O)c2cccc(S(=O)(=O)N3CCC4CCC(C(=O)NC(c5ccccc5)c5ccccc5)N4C(=O)C(NC(=O)C(C)NC)C3)c2)CCC2CCC(C(=O)NC(c3ccccc3)c3ccccc3)N2C1=O` (stereo not given) + Cc1c(S(C)(=O)=O)c(-c2cc(F)cc(N3CCN(c4ccc(NS(=O)(=O)c5ccc(NC(CCN6CCC(C(=O)OCCCP(=O)(O)O)CC6)CSc6ccccc6)c(S(=O)(=O)C(F)(F)F)c5)cc4)CC3)c2)c(-c2ccc(Cl)cc2)n1C(C)C was tested. Which IC50 (second compound 0.1 µM) did it give?
Answer: The IC50 was greater than 1 µM.

Question: What about the IC50 (second compound 0.316 µM) of the same compound?
Answer: The IC50 was greater than 1 µM.

Question: What about the IC50 (second compound 1 µM) of the same compound?
Answer: Its IC50 is greater than 1 µM.

Question: And the IC50 (second compound 3.16 µM)?
Answer: The IC50 was greater than 1 µM.

Question: And the IC50 (second compound 10 µM)?
Answer: The IC50 was greater than 1 µM.

Question: What about the viability, T/C (second compound 0.1 µM, first compound 0.00316 µM) of the same compound?
Answer: The viability, T/C was 100%.

Question: And the viability, T/C (second compound 0.1 µM, first compound 0.01 µM)?
Answer: The viability, T/C was 90.4%.

Question: What about the viability, T/C [1] of the same compound?
Answer: Its viability, T/C is 96%.

Question: What about the viability, T/C [2] of the same compound?
Answer: The viability, T/C was 87.8%.

Question: What about the viability, T/C [3] of the same compound?
Answer: The viability, T/C was 82.5%.

Question: What about the viability, T/C [4] of the same compound?
Answer: The viability, T/C was 73.2%.

Question: And the viability, T/C (second compound 0.316 µM, first compound 0.00316 µM)?
Answer: Its viability, T/C is 110%.

Question: What about the viability, T/C (second compound 0.316 µM, first compound 0.01 µM) of the same compound?
Answer: The viability, T/C was 109%.

Question: And the viability, T/C [5]?
Answer: Its viability, T/C is 94.9%.

Question: What about the viability, T/C [6] of the same compound?
Answer: Its viability, T/C is 112%.

Question: And the viability, T/C [7]?
Answer: Its viability, T/C is 90.8%.

Question: What about the viability, T/C [8] of the same compound?
Answer: Its viability, T/C is 97.2%.

Question: And the viability, T/C (second compound 1 µM, first compound 0.00316 µM)?
Answer: Its viability, T/C is 90.1%.

Question: What about the viability, T/C (second compound 1 µM, first compound 0.01 µM) of the same compound?
Answer: Its viability, T/C is 133%.

Question: And the viability, T/C [9]?
Answer: The viability, T/C was 129%.

Question: What about the viability, T/C [10] of the same compound?
Answer: Its viability, T/C is 107%.

Question: And the viability, T/C [11]?
Answer: The viability, T/C was 104%.

Question: And the viability, T/C [12]?
Answer: The viability, T/C was 119%.

Question: And the viability, T/C (second compound 3.16 µM, first compound 0.00316 µM)?
Answer: Its viability, T/C is 138%.

Question: What about the viability, T/C (second compound 3.16 µM, first compound 0.01 µM) of the same compound?
Answer: Its viability, T/C is 141%.

Question: And the viability, T/C [13]?
Answer: The viability, T/C was 144%.

Question: And the viability, T/C [14]?
Answer: Its viability, T/C is 130%.

Question: What about the viability, T/C [15] of the same compound?
Answer: The viability, T/C was 126%.

Question: And the viability, T/C [16]?
Answer: The viability, T/C was 156%.

Question: And the viability, T/C (second compound 10 µM, first compound 0.00316 µM)?
Answer: Its viability, T/C is 204%.

Question: What about the viability, T/C (second compound 10 µM, first compound 0.01 µM) of the same compound?
Answer: Its viability, T/C is 171%.

Question: What about the viability, T/C [17] of the same compound?
Answer: The viability, T/C was 172%.

Question: And the viability, T/C [18]?
Answer: The viability, T/C was 183%.

Question: And the viability, T/C [19]?
Answer: The viability, T/C was 161%.

Question: And the viability, T/C [20]?
Answer: Its viability, T/C is 173%.

Question: What does the source list for `Cc1nc(N2CCC3(CC2)COC(C)C3N)c(CO)nc1Sc1ccnc(N)c1Cl` (stereo not given) + Cc1c(S(C)(=O)=O)c(-c2cc(F)cc(N3CCN(c4ccc(NS(=O)(=O)c5ccc(NC(CCN6CCC(C(=O)OCCCP(=O)(O)O)CC6)CSc6ccccc6)c(S(=O)(=O)C(F)(F)F)c5)cc4)CC3)c2)c(-c2ccc(Cl)cc2)n1C(C)C?
Answer: IC50 (second compound 0.1 µM): > 3 µM; IC50 (second compound 0.316 µM): > 3 µM; IC50 (second compound 1 µM): > 3 µM; IC50 (second compound 3.16 µM): 2.2 µM; IC50 (second compound 10 µM): 0.884 µM; viability, T/C (second compound 0.1 µM, first compound 0.00949 µM): 127%; viability, T/C (second compound 0.1 µM, first compound 0.03 µM): 182%; viability, T/C (second compound 0.1 µM, first compound 0.0949 µM): 201%; viability, T/C (second compound 0.1 µM, first compound 0.3 µM): 141%; viability, T/C (second compound 0.1 µM, first compound 0.949 µM): 118%; viability, T/C (second compound 0.1 µM, first compound 3 µM): 102%; viability, T/C (second compound 0.316 µM, first compound 0.00949 µM): 161%; viability, T/C (second compound 0.316 µM, first compound 0.03 µM): 223%; viability, T/C (second compound 0.316 µM, first compound 0.0949 µM): 187%; viability, T/C (second compound 0.316 µM, first compound 0.3 µM): 137%; viability, T/C (second compound 0.316 µM, first compound 0.949 µM): 97.3%; viability, T/C (second compound 0.316 µM, first compound 3 µM): 75.4%; viability, T/C (second compound 1 µM, first compound 0.00949 µM): 181%; viability, T/C (second compound 1 µM, first compound 0.03 µM): 201%; viability, T/C (second compound 1 µM, first compound 0.0949 µM): 144%; viability, T/C (second compound 1 µM, first compound 0.3 µM): 104%; viability, T/C (second compound 1 µM, first compound 0.949 µM): 80.4%; viability, T/C (second compound 1 µM, first compound 3 µM): 66.6%; viability, T/C (second compound 3.16 µM, first compound 0.00949 µM): 180%; viability, T/C (second compound 3.16 µM, first compound 0.03 µM): 174%; viability, T/C (second compound 3.16 µM, first compound 0.0949 µM): 113%; viability, T/C (second compound 3.16 µM, first compound 0.3 µM): 80.5%; viability, T/C (second compound 3.16 µM, first compound 0.949 µM): 59%; viability, T/C (second compound 3.16 µM, first compound 3 µM): 51.7%; viability, T/C (second compound 10 µM, first compound 0.00949 µM): 177%; viability, T/C (second compound 10 µM, first compound 0.03 µM): 148%; viability, T/C (second compound 10 µM, first compound 0.0949 µM): 112%; viability, T/C (second compound 10 µM, first compound 0.3 µM): 76.7%; viability, T/C (second compound 10 µM, first compound 0.949 µM): 41.8%; viability, T/C (second compound 10 µM, first compound 3 µM): 40.5%
